Test results published in patent US20220193029A1, “BRYOSTATIN COMPOUNDS FOR ENHANCEMENT OF IMMUNOTHERAPY” (priority 2019, published 2022).
pKi: −log10 of the molar value.

How the values were obtained:
[1] = target: T1, PKCα (Homo sapiens, UniProt P17252); test: cell-free competitive PKC binding assay with [3H]-phorbol dibutyrate; conditions: competition with [3H]-PDBu, recombinant human PKC isoform
T1 construct: purchased Invitrogen
Method: (§1) Because a prerequisite for PKC pathway involvement is binding to PKC, compounds were initially evaluated for PKC affinity in a cell-free competitive binding assay with tritiated phorbol dibutyrate ([^3H]-PDBu). Assays were performed with representative members of both the conventional (PKCα) and novel (PKCδ) PKC families. Subsequently, compounds were assayed for PKC activation in living cells using an isoform translocation assay.
(§2) To a 50 mL polypropylene tube was added Tris-HCl (pH 7.4, 1 M, 1 mL), KCl (1 M, 2 mL), CaCl2) (0.1 M, 30 μL), and bovine serum albumin (BSA, 40 mg, Sigma-Aldrich). This mixture was diluted to 20 mL with deionized H2O and mixed gently. The buffer was stored on ice until use.
(§3) For every two assays, 3.5 mg phosphatidylserine (Avanti Polar Lipids, porcine, 25 mg/mL CHCl3 solution) was concentrated by removing chloroform under a stream of nitrogen followed by reduced pressure. The solid PS was suspended as vesicles in freshly prepared PKC binding assay buffer (3.5 mL) by sonicating six times for 30 sec, with a 30 sec rest between sonications (Branson Sonifier 250, power=2, 50% duty cycle). The resulting milky cloudy mixture (1 mg/mL) was stored on ice until use.
(§4) Assay PKC was prepared by dissolving a 4 μg aliquot of the indicated recombinant human PKC isoform (Invitrogen) into 11.6 mL of PKC binding assay buffer (this amount is sufficient for two assays). The diluted PKC was stored on ice for immediate use.
(§5) ^3H-PDBu (American Radiolabeled Chemicals, Inc.; 1 mCi/mL acetone solution; specific activity: 20 Ci/mmol) was diluted […] with DMSO. The resulting 500 nM stock solution was further diluted with DMSO to 30 nM.
(§6) Compound dilutions were prepared by serially diluting from a chosen “high” concentration by factors of 3 or 4.
(§7) To a polypropylene tube was added 3.3 mL of 1 mg/mL PS vesicles solution, 11 mL of PKC isoform solution, and 1.1 mL of 30 nM ^3H-PDBu solution were added. The resulting solution was vortexed to mix and stored on ice.
(§8) Materials: • Glass-fiber filters (Whatman GF/B) were prepared by soaking them in a solution of aqueous polyethyleneimine (10% by vol, 18 mL) in deionized water (600 mL) for ≥1 h. • 500 mL “rinsing buffer” of 20 mM Tris, pH 7.4 was cooled on ice for the duration of the incubation period and for the remainder of the assay.
Triplicate data points were obtained for each analog concentration. For each data point, 280 μL of “Master Mix” Solution and 20 μL of analog compound at a specified concentration were added to a polypropylene tube. […] Maximal ^3H-PDBu binding was assessed in triplicate by substitution of the analog compound with 20 μL DMSO. The solutions were vortexed to mix, incubated at 37° C. for 10 min, and incubated on ice for at least 30 min prior to filtration. Using a Brandel Harvester, the assay contents from each polypropylene tube were vacuum-filtered through polyethylenimine-soaked filters, washing with rinsing buffer (3×) and drying first under vacuum for 5 min and then under ambient conditions for ≥2 h. The resulting filters had circular perforations for each data point, which were removed with forceps and placed in a scintillation vial. Scintillation vials were filled with Bio-Safe II scintillation fluid (5 mL) and measured for radioactivity using a Beckman LS 6000SC scintillation counter. Counts per minute (cpm) were averaged for each triplicate dilution. The data were plotted—cpm vs. log(concentration)—using Prism® by GraphPad Software and an IC50 was determined using that program's built-in one-site competition least squares regression function. Ki values were calculated using the equation: Ki=IC50/(1+([3H−PDBu]/Kd)). The Kd of ^3H-PDBu for PKC isoforms was measured separately via saturation binding experiments under identical conditions.

[2] = target: T2, PKCδ (Homo sapiens, UniProt Q05655); test: as above; conditions: competition with [3H]-PDBu, recombinant human PKC isoform
T2 construct: purchased Invitrogen
Method: as §1, §2, §3, §4, §5, §6, §7, §8
Triplicate data points were obtained for each analog concentration. For each data point, 280 μL of “Master Mix” Solution and 20 μL of analog compound at a specified concentration were added to a polypropylene tube. […] Maximal ^3H-PDBu binding was assessed in triplicate by substitution of the analog compound with 20 μL DMSO. The solutions were vortexed to mix, incubated at 37° C. for 10 min, and incubated on ice for at least 30 min prior to filtration. Using a Brandel Harvester, the assay contents from each polypropylene tube were vacuum-filtered through polyethylenimine-soaked filters, washing with rinsing buffer (3×) and drying first under vacuum for 5 min and then under ambient conditions for ≥2 h. The resulting filters had circular perforations for each data point, which were removed with forceps and placed in a scintillation vial. Scintillation vials were filled with Bio-Safe II scintillation fluid (5 mL) and measured for radioactivity using a Beckman LS 6000SC scintillation counter. Counts per minute (cpm) were averaged for each triplicate dilution. The data were plotted—cpm vs. log(concentration)—using Prism® by GraphPad Software and an IC50 was determined using that program's built-in one-site competition least squares regression function. […] The Kd of ^3H-PDBu for PKC isoforms was measured separately via saturation binding experiments under identical conditions.

T2 sequence (Q05655 whole entry, canonical isoform): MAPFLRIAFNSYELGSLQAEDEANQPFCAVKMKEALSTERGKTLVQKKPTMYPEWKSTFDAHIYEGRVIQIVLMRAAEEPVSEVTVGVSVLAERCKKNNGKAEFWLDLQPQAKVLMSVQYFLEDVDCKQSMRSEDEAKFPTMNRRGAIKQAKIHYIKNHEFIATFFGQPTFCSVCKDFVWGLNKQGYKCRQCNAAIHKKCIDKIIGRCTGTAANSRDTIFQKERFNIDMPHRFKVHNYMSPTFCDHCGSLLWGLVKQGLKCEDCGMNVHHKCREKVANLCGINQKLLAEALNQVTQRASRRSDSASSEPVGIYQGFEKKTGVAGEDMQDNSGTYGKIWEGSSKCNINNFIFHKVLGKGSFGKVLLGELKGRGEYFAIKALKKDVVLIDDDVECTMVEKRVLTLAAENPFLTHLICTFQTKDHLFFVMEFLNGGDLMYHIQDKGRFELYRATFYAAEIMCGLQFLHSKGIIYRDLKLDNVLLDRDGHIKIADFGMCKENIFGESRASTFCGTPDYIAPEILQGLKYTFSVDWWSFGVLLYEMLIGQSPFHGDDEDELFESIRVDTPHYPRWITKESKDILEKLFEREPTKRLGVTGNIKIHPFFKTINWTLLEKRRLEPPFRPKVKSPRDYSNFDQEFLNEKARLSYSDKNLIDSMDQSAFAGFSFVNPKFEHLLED

Row | Compound | pKi [1] | pKi [2]
1 | CCCCCC#CC(=O)O[C@H]1/C(=C/C(=O)OC)C[C@H]2C[C@H]([C@@H](C)O)OC(=O)C[C@H](O)C[C@@H]3C[C@H](OC(C)=O)C(C)(C)[C@](O)(C[C@@H]4C[C@@](O)(CO)C[C@H](/C=C/C(C)(C)[C@]1(O)O2)O4)O3 [SUW203] | 9.00 | 8.39
2 | CCC/C=C/C=C/C(=O)O[C@H]1/C(=C/C(=O)OC)C[C@H]2C[C@H]([C@@H](C)O)OC(=O)C[C@H](O)C[C@@H]3C[C@H](OC(C)=O)C(C)(C)[C@](O)(C[C@@H]4C[C@H](OC(C)=O)C[C@H](/C=C/C(C)(C)[C@]1(O)O2)O4)O3 [SUW206] | 9.00 | 8.89
3 | CCC/C=C/C=C/C(=O)O[C@H]1/C(=C/C(=O)OC)C[C@H]2C[C@H]([C@@H](C)O)OC(=O)C[C@H](O)C[C@@H]3C[C@H](OC(C)=O)C(C)(C)[C@](O)(C[C@@H]4C[C@@H](OC(C)=O)C[C@H](/C=C/C(C)(C)[C@]1(O)O2)O4)O3 [SUW207] | 8.70 | 8.27
4 | CCCC=CC=CC(=O)OC1C(=CC(=O)OC)CC2CC(C(C)O)OC(=O)CC(O)CC3CC(OC(C)=O)C(C)(C)C(O)(CC4CC(=CC(=O)OCC)CC(C=CC(C)(C)C1(O)O2)O4)O3 (centres unmarked) [SUW217] | 8.04 | 8.03
5 | CCCC=CC=CC(=O)OC1C(=CC(=O)OC)CC2CC(C(C)O)OC(=O)CC(O)CC3CC(OC(C)=O)C(C)(C)C(O)(CC4CC(=CC(=O)OCC)CC(C=CC(C)(C)C1(O)O2)O4)O3 (centres unmarked) [SUW218] | 8.15 | 8.18
6 | CCCCCCCC(=O)O[C@H]1/C(=C/C(=O)OC)C[C@H]2C[C@H]([C@@H](C)O)OC(=O)C[C@H](O)C[C@@H]3C[C@H](OC(C)=O)C(C)(C)[C@](O)(C[C@@H]4C[C@@H](C)C[C@H](/C=C/C(C)(C)[C@]1(O)O2)O4)O3 [SUW226] | 8.24 | 8.18
7 | C=CCOC(=O)/C=C1/C[C@H]2C[C@]3(O)O[C@H](C[C@@H](O)CC(=O)O[C@@H]([C@@H](C)O)C[C@@H]4C/C(=C\C(=O)OC)[C@H](OC(=O)/C=C/C=C/CCC)[C@@](O)(O4)C(C)(C)/C=C/[C@@H](C1)O2)C[C@H](OC(C)=O)C3(C)C [SUW229] | 8.74 | 8.92
